The conditions of this data set: 101.33 kPa, Liquid; for speed of sound: Pulse-echo method; for mass density: Pycnometric method.

Each structure is given as a SMILES string. Numbers after ± are expanded uncertainties.

One may read the speed of sound as the propagation velocity of pressure waves in the medium. For orientation: mass density means the mass of a sample divided by its volume. For `c1ccccc1` [benzene], where the note is “298.15 K”, the speed of sound amounted to 1298 ± 5 m/s and the mass density was found to be 873.64 ± 5.5 kg/m3.
For `Cc1ccc(C)cc1` [1,4-dimethylbenzene] the same measures were 1310 ± 2 m/s and 858.63 ± 0.45 kg/m3.
For `Cc1ccccc1` [toluene] the same measures were 1305 ± 5 m/s and 862.17 ± 5.4 kg/m3.
For `Cc1ccccc1C` [1,2-dimethylbenzene] the same measures were 1344 ± 2 m/s and 875.9 ± 0.46 kg/m3.
For the molecule `Cc1ccccc1N` [2-methylaniline], the mass density (298.15 K) is 994.28 ± 0.57 kg/m3. For the same molecule, the speed of sound (308.15 K) came to 1603 ± 2.3 m/s.

Values taken from the NIST ThermoML archive (doi:10.1021/je900237e).
